# Source: patent US4435396A, “Antiulcer 2-guanidino-4-(2-substituted-amino-4-imidazolyl)thiazoles and process therefor” (Pfizer Inc., priority 1982, dated 1984)
# Several values for one entry are separate records, joined by “and”; a condition that tells them apart may be missing. Equal entries are not always repeated.
# Legend:
# [1] = system: ethanol-induced ulceration in rats; experiment: Inhibition of ethanol-induced ulceration in rats; assay type: in vivo, rat; conditions: oral dose of 30 mg/kg; for inhibition in vivo at 30 mg/kg: Rattus norvegicus, po
# Method: The antiulcer activity of the products of this invention was also determined by an ethanol-induced rat ulcer assay. […] One hour after the ethanol challenge the animals (8/group) are killed and the stomachs examined for the presence of lesions. After sacrifice the abdomen is opened and a locking hemostat placed at the pylorus. Six ml of a 4% solution of formaldehyde was injected into the stomach with a gastric feeding tube and a second locking hemostat was used to seal the esophagus. The stomach was removed, opened along the greater curvature and examined for ulceration.
# The scoring system used to quantitate the ethanol-induced lesions is given below.
# For each group of animals an ulcer index is calculated as follows:
# Ulceration Index=(the sum of the scores of the group)×(the sum of the number of ulcers in the group)×(the fraction of the group having any incidence of ulceration).
# The percentage inhibition of ulcers is calculated as follows:
# % Inhibition=100×[(ulcer index controls)-(ulcer index
# drug-treated)].div.(ulcer index controls).
# [2] = system: Heidenhain pouch dogs; experiment: Gastric acid antisecretory activity in pentagastrin-stimulated conscious Heidenhain pouch dogs; assay type: in vivo, dog; conditions: intravenously
# Method: The gastric acid antisecretory activity of compounds of the present invention was determined in overnight fasted, conscious Heidenhain pouch dogs. Pentagastrin (Pentavolon-Ayerst) was used to stimulate acid output by continuous infusion into a superficial leg vein at doses earlier determined to stimulate near maximal acid output from the gastric pouch. Gastric juice was collected at 30 minute intervals following the start of a pentagastrin infusion and measured to the nearest 0.1 ml. Ten collections were taken for each dog during an experiment. Acid concentration was determined by tritrating 1.0 ml of gastric juice to pH 7.4 with 0.1 N sodium hydroxide using an Autoburette and a glass electrode pH meter (Radiometer).
# Drug or vehicle was given intravenously 90 minutes following the start of the pentagastrin infusion, at a dose of 1 mg/kg or less. Gastric acid antisecretory effects were calculated by comparing the lowest acid output after drug administration with the mean acid output immediately before drug.
# [3] = biological target: T1, H2 -receptor (Cavia porcellus, UniProt P47747); experiment: Histamine-H2 antagonist activity in isolated guinea pig right atria; assay type: cell-based; conditions: histamine dose-response, read-out: pA2 (apparent dissociation constant of the H2-receptor antagonist) (converted)
# T1 construct: the heart removed and the right atria dissected free; from tissue; host or cells: guinea pig right atria
# Method: The histamine-H2 antagonist activity of compounds of the present invention was determined by the following procedure:
# Guinea pigs are killed rapidly with a blow to the head, the heart removed and the right atria dissected free. Atria are suspended, isometrically, in a temperature-controlled (32°±2°) tissue bath (10 ml) containing oxygenated (95% O2; 5% CO2) Krebs-Henseleit buffer (pH 7.4) and are allowed to stabilize approximately one hour during which time the tissue bath is flushed several times. Individual atrial contractions are followed with a force-displacement transducer connected to a cardiotachometer and Grass polygraph recorder. After obtaining a dose-response curve to histamine, the bath containing each atrium is flushed several times with fresh buffer and the atria reequilibrated to basal rates. Following the return to basal rate, test compounds are addded at selected final concentrations and the histamine dose-response curve is again determined in the presence of antagonist. Results are expressed as dose-ratios, the ratio of histamine concentrations required to produce one-half of maximal stimulation in the presence and absence of antagonist, and the apparent dissociation constant of the H2 -receptor antagonist pA2, is determined.
# [4] = dose of 1 mg/kg, pentagastrin-stimulated Heidenhain pouch dogs
# T1 sequence (P47747 whole entry): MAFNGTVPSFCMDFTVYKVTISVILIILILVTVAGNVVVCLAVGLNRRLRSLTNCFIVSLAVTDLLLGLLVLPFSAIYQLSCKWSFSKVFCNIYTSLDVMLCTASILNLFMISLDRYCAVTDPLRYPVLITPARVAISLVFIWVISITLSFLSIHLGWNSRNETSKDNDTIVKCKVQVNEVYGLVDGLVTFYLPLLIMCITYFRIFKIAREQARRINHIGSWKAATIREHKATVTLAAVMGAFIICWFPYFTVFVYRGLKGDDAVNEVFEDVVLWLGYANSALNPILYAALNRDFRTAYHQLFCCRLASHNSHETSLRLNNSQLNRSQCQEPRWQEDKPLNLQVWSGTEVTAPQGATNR
compound,measurement,setting,value
CCN(C)c1nc(-c2csc(N=C(N)N)n2)c[nH]1 [product y],inhibition in vivo at 30 mg/kg,[1],≥ 19%
NC(N)=Nc1nc(-c2c[nH]c(N3CCCC3)n2)cs1 [product bb],inhibition in vivo at 30 mg/kg,[1],≥ 19%
CC(C)CCNc1nc(-c2csc(N=C(N)N)n2)c[nH]1 [product m],inhibition in vivo at 30 mg/kg,[1],≥ 19%
NC(N)=Nc1nc(-c2c[nH]c(N3CCCCC3)n2)cs1 [product cc],inhibition of gastric secretion,"[2]; 0.1 mg/kg, Heidenhain pouch dogs",72%
same,inhibition of gastric secretion,[2]; [4],at least 21%
same,inhibition in vivo at 30 mg/kg,[1],≥ 19%
CCN(CC)c1nc(-c2csc(N=C(N)N)n2)c[nH]1 [product z],inhibition in vivo at 30 mg/kg,[1],≥ 19%
NC(N)=Nc1nc(-c2c[nH]c(NCCCc3ccccc3)n2)cs1 [product s],Kb,[3],≤ 100 nM
same,inhibition in vivo at 30 mg/kg,[1],86 to 100%
NC(N)=Nc1nc(-c2c[nH]c(NC3CCCC3)n2)cs1 [product o],Kb,[3],≤ 1260 nM
same,inhibition of ethanol-induced ulceration,[1],no significant activity
NC(N)=Nc1nc(-c2c[nH]c(NCCc3ccccc3)n2)cs1 [product r],inhibition of gastric secretion,[2]; [4],at least 21%
NC(N)=Nc1nc(-c2c[nH]c(NCCCCc3ccccc3)n2)cs1 [product t],Kb,[3],≤ 100 nM
same,inhibition in vivo at 30 mg/kg,[1],86 to 100%
NC(N)=Nc1nc(-c2c[nH]c(NCCc3ccccn3)n2)cs1 [product v],inhibition of ethanol-induced ulceration,[1],no significant activity
NC(N)=Nc1nc(-c2c[nH]c(NC3CC3)n2)cs1 [product n],Kb,[3],≤ 1260 nM and ≤ 100 nM and 1.58 nM
same,inhibition of gastric secretion,[2]; [4],at least 21%
same,inhibition of gastric secretion,"[2]; dose of 3 microg/kg, Heidenhain pouch dogs",42%
same,inhibition in vivo at 30 mg/kg,[1],7 to 13%
NC(N)=Nc1nc(-c2c[nH]c(NC3CCCCC3)n2)cs1 [product p],inhibition in vivo at 30 mg/kg,[1],7 to 13%
NC(N)=Nc1nc(-c2c[nH]c(N3CCOCC3)n2)cs1 [product aa],inhibition of ethanol-induced ulceration,[1],no significant activity
NC(N)=Nc1nc(-c2c[nH]c(NCc3ccccc3)n2)cs1 [product q],inhibition in vivo at 30 mg/kg,[1],7 to 13%
CN(C)c1nc(-c2csc(N=C(N)N)n2)c[nH]1 [product x],inhibition of ethanol-induced ulceration,[1],no significant activity
NC(N)=Nc1nc(-c2c[nH]c(NCCc3ccncc3)n2)cs1 [product u],inhibition in vivo at 30 mg/kg,[1],21 to 51%
NC(N)=Nc1nc(-c2c[nH]c(NCCc3ccc(Cl)cc3)n2)cs1 [product w],Kb,[3],≤ 100 nM
same,inhibition of gastric secretion,"[2]; the same (1 mg/kg) or a lower dose, Heidenhain pouch dogs",at least 97%
